The data set is described as follows: In-vivo testing: plasma pharmacokinetics after single oral gavage of suspension in rats. The following applies: Sprague-Dawley, rat, 10 mg/kg.

The source of these data is patent publication US20260115191A1, “Nilotinib Compositions with Enhanced Solubility” (Neoform Biopharmaceutical Limited, priority 2020, published 2026).

Structures can show the parent of a compound that is named as a salt.

For orientation: AUC(0-t) means the area under the concentration-time curve up to a stated or last time point. The low end stands for low exposure, the high end for high exposure. As usually defined, the Cmax is the maximum level reached in the sampled fluid or tissue. What is called Tmax is the time from dosing to the highest level. Consider `Cc1cn(-c2cc(NC(=O)c3ccc(C)c(Nc4nccc(-c5cccnc5)n4)c3)cc(C(F)(F)F)c2)cn1` [Nilotinib HCl monohydrate, 4-methyl-N-[3-(4-methylimidazol-1-yl)-5-(trifluoromethyl)phenyl]-3-[(4-pyridin-3-ylpyrimidin-2-yl)amino]benzamide], for which the AUC(0-t) turned out to be 2910 ng·h/mL, the Cmax turned out to be 493 ng/mL and the Tmax was determined as 2 h.
